Test results as given in the NIST ThermoML archive (doi:10.1021/je900732r).

Assay: mn = molality of the nth substance listed, in mol/kg
Conditions: 101 kPa, Liquid; for speed of sound: Pulse-echo method

[Cu+2].[O-][Cl+3]([O-])([O-])[O-].[O-][Cl+3]([O-])([O-])[O-] [copper perchlorate] + C[S+](C)[O-]
mass density [kg/m3]
Conditions	293.15 K	298.15 K	303.15 K	313.15 K	323.15 K	333.15 K
m1 = 0.01424	1103.32	1098.31	1093.29	1083.26	1073.23	1063.21
m1 = 0.01956	1104.48	1099.47	1094.46	1084.44	1074.42	1064.4
m1 = 0.02779	1106.27	1101.26	1096.26	1086.25	1076.24	1066.24
m1 = 0.03497	1107.84	1102.83	1097.83	1087.83	1077.83	1067.84
m1 = 0.0419	1109.35	1104.35	1099.36	1089.37	1079.36	1069.38
m1 = 0.05636	1112.53	1107.54	1102.54	1092.57	1082.6	1072.64
m1 = 0.07067	1115.69	1110.7	1105.71	1095.76	1085.8	1075.85
m1 = 0.08366	1118.57	1113.58	1108.61	1098.65	1088.72	1078.79
m1 = 0.09783	1121.71	1116.73	1111.75	1101.83	1091.91	1082
m1 = 0.1114	1124.76	1119.78	1114.82	1104.9	1095	1085.1
m1 = 0.1251	1127.83	1122.85	1117.89	1108	1098.11	1088.23
m1 = 0.1384	1130.82	1125.85	1120.9	1111.02	1101.14	1091.28

O=S(=O)([O-])C(F)(F)F.O=S(=O)([O-])C(F)(F)F.[Cu+2] [copper(II) trifluoromethanesulfonate] + CO
Conditions	mass density, 283.15 K [kg/m3]	mass density, 288.15 K [kg/m3]	mass density, 293.15 K [kg/m3]	mass density, 298.15 K [kg/m3]	mass density, 303.15 K [kg/m3]	mass density, 308.15 K [kg/m3]	mass density, 313.15 K [kg/m3]	speed of sound, 298.15 K [m/s]
m1 = 0.1213	829.484	824.791	820.094	815.38	810.649	805.885	801.107	1106
m1 = 0.1418	834.535	829.841	825.141	820.428	815.692	810.942	806.159	1106.6
m1 = 0.1772	843.312	838.612	833.908	829.19	824.45	819.682	814.901	1107.4
m1 = 0.2047	850.214	845.512	840.803	836.081	831.338	826.565	821.777	1108.2
m1 = 0.231	856.972	852.265	847.554	842.828	838.081	833.302	828.513	1109.1
m1 = 0.2571	863.707	858.996	854.279	849.545	844.805	840.033	835.231	1109.7
m1 = 0.2847	871.006	866.292	861.57	856.839	852.088	847.311	842.504	1110.5
